{"source": "patent US20240327364A1", "about": "“THERAPEUTIC TARGETING OF GPR68 TO INDUCE FERROPTOSIS” (University Of Maryland, Baltimore, priority 2023, published 2024)", "key": {"[1]": {"molecular_target": "T1, sst4 (Homo sapiens, UniProt P31391)", "T1 construct": "host or cells: Chem-1 cells with Gα15", "test": "GPCR Profiler", "type": "cell-based"}, "[2]": {"molecular_target": "T2, PDGFRA (Homo sapiens, UniProt P16234)", "T2 construct": "purchased DiscoveRx (Fremont, CA)", "T2 sequence (P16234 24-1089)": "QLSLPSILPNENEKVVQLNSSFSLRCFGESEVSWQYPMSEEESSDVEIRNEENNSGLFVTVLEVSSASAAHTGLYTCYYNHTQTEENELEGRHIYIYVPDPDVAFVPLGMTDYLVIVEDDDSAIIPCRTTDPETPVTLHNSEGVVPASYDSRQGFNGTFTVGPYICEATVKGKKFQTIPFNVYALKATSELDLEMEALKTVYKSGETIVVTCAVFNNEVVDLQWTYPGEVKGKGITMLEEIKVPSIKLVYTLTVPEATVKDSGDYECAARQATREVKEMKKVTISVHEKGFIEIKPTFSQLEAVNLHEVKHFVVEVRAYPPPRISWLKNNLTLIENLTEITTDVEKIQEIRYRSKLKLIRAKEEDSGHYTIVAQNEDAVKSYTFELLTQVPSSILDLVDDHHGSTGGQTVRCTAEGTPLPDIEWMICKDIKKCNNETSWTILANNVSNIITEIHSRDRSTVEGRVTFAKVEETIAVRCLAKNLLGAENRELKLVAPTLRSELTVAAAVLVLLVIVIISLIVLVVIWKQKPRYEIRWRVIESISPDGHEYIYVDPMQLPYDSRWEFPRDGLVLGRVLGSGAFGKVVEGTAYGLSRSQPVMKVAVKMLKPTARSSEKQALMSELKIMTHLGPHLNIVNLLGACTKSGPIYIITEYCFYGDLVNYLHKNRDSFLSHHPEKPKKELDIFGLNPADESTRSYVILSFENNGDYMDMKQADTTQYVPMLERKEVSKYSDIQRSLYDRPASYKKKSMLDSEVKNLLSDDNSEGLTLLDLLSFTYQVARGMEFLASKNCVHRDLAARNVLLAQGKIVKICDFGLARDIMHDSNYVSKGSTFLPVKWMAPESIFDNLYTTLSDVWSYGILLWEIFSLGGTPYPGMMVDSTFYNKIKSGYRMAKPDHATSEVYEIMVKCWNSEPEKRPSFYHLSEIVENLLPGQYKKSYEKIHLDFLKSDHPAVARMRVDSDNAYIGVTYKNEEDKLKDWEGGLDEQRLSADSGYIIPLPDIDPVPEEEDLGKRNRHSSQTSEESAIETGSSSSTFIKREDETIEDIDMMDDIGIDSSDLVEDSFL", "test": "KinomeScan", "type": "binding", "details": "read-out: % Control"}, "[3]": {"molecular_target": "T3, LIMK1 (Homo sapiens, UniProt P53667)", "T3 construct": "purchased DiscoveRx", "test": "KinomeScan", "type": "binding", "details": "read-out: % Control"}, "[4]": {"molecular_target": "T4, PHKG2 (Homo sapiens, UniProt P15735)", "T4 construct": "purchased DiscoveRx (Fremont, CA)", "test": "KinomeScan", "type": "binding", "details": "read-out: % Control"}, "[5]": {"molecular_target": "T5, PKN1 (Homo sapiens, UniProt Q16512)", "T5 construct": "purchased DiscoveRx (Fremont, CA)", "test": "KinomeScan", "type": "binding", "details": "read-out: % Control"}, "[6]": {"molecular_target": "T6, PLK2 (Homo sapiens, UniProt Q9NYY3)", "T6 construct": "purchased DiscoveRx (Fremont, CA)", "test": "KinomeScan", "type": "binding", "details": "read-out: % Control"}, "[7]": {"molecular_target": "T7, PRKG1 (Homo sapiens, UniProt Q13976)", "T7 construct": "purchased DiscoveRx (Fremont, CA)", "test": "KinomeScan", "type": "binding", "details": "read-out: % Control"}, "[8]": {"molecular_target": "T8, NEK5 (Homo sapiens, UniProt Q6P3R8)", "T8 construct": "purchased DiscoveRx", "test": "KinomeScan", "type": "binding", "details": "read-out: % Control"}, "[9]": {"molecular_target": "T9, RET(M918T) (Homo sapiens, UniProt P07949, M918T)", "T9 construct": "purchased DiscoveRx (Fremont, CA)", "T9 sequence (P07949 29-1114 M918T)": "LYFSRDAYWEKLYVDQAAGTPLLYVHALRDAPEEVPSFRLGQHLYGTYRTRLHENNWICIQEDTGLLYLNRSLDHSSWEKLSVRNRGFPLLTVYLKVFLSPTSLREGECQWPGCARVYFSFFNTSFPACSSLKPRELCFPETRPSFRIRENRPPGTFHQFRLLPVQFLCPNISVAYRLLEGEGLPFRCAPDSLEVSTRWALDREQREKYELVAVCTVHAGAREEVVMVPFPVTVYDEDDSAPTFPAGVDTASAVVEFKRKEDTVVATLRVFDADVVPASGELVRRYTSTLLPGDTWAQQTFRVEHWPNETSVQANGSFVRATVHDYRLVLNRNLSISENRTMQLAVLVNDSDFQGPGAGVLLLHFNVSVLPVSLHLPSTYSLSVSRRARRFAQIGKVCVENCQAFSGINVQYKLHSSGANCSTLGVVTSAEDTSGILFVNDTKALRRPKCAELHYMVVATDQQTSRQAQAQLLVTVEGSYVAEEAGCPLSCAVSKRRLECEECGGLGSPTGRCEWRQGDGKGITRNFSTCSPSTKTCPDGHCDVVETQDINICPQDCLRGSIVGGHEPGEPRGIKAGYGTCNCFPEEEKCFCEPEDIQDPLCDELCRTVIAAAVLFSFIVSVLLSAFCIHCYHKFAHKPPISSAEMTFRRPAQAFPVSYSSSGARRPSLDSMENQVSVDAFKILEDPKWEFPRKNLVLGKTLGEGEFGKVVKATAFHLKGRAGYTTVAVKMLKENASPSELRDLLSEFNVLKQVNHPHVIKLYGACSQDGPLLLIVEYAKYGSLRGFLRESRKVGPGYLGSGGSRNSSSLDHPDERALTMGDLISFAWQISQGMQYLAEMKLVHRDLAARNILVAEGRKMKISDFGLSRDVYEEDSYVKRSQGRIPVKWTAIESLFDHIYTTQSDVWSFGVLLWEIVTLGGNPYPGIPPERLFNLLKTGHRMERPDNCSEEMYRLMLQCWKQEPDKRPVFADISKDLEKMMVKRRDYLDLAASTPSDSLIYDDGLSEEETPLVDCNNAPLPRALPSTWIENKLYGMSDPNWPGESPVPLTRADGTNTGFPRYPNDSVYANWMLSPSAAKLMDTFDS", "test": "KinomeScan", "type": "binding", "details": "read-out: % Control"}, "[10]": {"molecular_target": "T10, HCK (Homo sapiens, UniProt P08631)", "T10 construct": "purchased DiscoveRx (Fremont, CA)", "test": "KinomeScan", "type": "binding", "details": "read-out: % Control"}, "[11]": {"molecular_target": "T11, P2Y11 (Homo sapiens, UniProt Q96G91)", "T11 construct": "host or cells: Chem-1 cells expressing Gα15", "test": "GPCR Profiler", "type": "cell-based"}, "[12]": {"molecular_target": "T12, ERK1 (Homo sapiens, UniProt P27361)", "T12 construct": "purchased DiscoveRx (Fremont, CA)", "test": "KinomeScan", "type": "binding", "details": "read-out: % Control"}, "[13]": {"molecular_target": "T13, Y2 (Homo sapiens, UniProt P49146)", "T13 construct": "host or cells: Chem-1 cells expressing Galpha15", "test": "GPCR Profiler", "type": "cell-based"}, "[14]": {"molecular_target": "T14, EPHB3 (Homo sapiens, UniProt P54753)", "T14 construct": "purchased DiscoveRx (Fremont, CA)", "T14 sequence (P54753 34-998)": "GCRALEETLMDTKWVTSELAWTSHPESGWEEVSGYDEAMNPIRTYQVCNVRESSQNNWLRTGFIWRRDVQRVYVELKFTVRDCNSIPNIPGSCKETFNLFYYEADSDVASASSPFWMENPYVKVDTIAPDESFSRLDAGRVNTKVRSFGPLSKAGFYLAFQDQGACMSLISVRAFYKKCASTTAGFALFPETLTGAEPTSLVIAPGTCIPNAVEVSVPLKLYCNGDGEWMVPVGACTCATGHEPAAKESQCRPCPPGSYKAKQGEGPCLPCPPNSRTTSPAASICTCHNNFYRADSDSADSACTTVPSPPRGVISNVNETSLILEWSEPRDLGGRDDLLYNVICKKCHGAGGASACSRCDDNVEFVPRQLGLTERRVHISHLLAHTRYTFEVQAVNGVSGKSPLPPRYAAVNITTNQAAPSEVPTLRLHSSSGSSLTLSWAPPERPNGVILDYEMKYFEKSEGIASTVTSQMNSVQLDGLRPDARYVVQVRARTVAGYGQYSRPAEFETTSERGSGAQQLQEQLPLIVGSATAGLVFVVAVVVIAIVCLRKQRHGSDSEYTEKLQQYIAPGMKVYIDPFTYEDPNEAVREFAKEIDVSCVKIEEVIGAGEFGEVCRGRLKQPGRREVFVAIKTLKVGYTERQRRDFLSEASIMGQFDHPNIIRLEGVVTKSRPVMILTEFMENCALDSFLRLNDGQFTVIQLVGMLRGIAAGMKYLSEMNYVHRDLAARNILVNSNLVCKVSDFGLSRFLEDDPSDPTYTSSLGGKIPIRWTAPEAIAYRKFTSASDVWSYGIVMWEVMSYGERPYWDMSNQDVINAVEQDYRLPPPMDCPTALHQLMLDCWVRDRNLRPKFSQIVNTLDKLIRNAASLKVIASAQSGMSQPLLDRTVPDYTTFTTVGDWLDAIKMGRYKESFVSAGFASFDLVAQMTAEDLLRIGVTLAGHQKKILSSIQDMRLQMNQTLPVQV", "test": "KinomeScan", "type": "binding", "details": "read-out: % Control"}, "[15]": {"molecular_target": "T15, CCR9 (Homo sapiens, UniProt P51686)", "T15 construct": "host or cells: Chem-1 cells with Gα15", "test": "GPCR Profiler", "type": "cell-based"}, "[16]": {"molecular_target": "T16, BB3 (Homo sapiens, UniProt P32247)", "T16 construct": "host or cells: Chem-1 cells with promiscuous Gα15", "test": "GPCR Profiler", "type": "cell-based"}, "[17]": {"molecular_target": "T17, OPRM1 (Homo sapiens, UniProt P35372)", "T17 construct": "host or cells: Chem-1 cells expressing Gα15", "test": "GPCR Profiler", "type": "cell-based"}, "[18]": {"molecular_target": "CSNK2A2 (Homo sapiens, UniProt P19784)", "sequence (P19784 whole entry)": "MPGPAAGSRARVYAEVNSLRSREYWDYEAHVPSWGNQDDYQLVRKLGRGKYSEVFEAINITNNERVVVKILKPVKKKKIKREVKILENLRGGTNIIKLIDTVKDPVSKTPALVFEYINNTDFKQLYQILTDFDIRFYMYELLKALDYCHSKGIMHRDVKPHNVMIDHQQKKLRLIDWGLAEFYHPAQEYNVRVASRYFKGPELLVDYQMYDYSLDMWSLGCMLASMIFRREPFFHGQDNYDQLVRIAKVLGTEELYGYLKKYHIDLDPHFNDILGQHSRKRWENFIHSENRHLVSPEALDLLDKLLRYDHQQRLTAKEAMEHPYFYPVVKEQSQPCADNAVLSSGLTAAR", "test": "KinomeScan", "type": "binding", "details": "read-out: % Control"}, "[19]": {"molecular_target": "T18, CCK2 (Homo sapiens, UniProt P32239)", "T18 construct": "host or cells: Chem-1 cells with promiscuous Gα15", "test": "GPCR Profiler", "type": "cell-based"}, "[20]": {"molecular_target": "T19, PCTK3 (Homo sapiens, UniProt Q07002)", "T19 construct": "purchased DiscoveRx", "test": "KinomeScan", "type": "binding", "details": "read-out: % Control"}, "[21]": {"molecular_target": "T20, CCR8 (Homo sapiens, UniProt P51685)", "T20 construct": "host or cells: Chem-1 cells with Gα15", "test": "GPCR Profiler", "type": "cell-based"}, "[22]": {"molecular_target": "T21, DDR2 (Homo sapiens, UniProt Q16832)", "T21 construct": "purchased DiscoveRx (Fremont, CA), KinomeScan service", "T21 sequence (Q16832 22-855)": "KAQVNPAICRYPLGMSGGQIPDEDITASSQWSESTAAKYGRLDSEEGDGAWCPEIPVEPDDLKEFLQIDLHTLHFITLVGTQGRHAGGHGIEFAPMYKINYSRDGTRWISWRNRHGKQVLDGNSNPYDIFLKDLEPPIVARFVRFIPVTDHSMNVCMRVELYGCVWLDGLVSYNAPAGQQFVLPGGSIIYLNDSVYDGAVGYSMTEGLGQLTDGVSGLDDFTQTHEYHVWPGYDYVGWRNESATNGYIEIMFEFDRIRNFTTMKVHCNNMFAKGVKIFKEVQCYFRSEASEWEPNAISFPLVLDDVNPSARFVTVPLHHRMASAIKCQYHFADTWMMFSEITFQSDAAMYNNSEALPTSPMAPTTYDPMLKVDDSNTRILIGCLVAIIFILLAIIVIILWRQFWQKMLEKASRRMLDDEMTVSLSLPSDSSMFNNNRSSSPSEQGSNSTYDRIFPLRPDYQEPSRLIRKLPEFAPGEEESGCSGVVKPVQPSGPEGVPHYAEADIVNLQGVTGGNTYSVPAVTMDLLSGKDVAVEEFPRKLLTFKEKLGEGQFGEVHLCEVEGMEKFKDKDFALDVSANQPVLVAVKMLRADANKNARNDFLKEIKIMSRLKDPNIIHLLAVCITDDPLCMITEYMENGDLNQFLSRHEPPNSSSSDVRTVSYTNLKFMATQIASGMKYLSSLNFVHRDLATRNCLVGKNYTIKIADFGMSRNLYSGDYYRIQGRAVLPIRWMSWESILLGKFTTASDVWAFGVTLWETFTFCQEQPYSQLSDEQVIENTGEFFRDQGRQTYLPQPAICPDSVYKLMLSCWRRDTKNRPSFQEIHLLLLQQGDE", "test": "KinomeScan", "type": "binding", "details": "read-out: % Control"}, "[23]": {"molecular_target": "T22, RET (Homo sapiens, UniProt P07949)", "T22 construct": "purchased DiscoveRx (Fremont, CA)", "T22 sequence (P07949 29-1114)": "as the sequence (P07949 29-1114 M918T) above, with T890M counted along it", "test": "KinomeScan", "type": "binding", "details": "read-out: % Control"}, "[24]": {"molecular_target": "T23, AKT2 (Homo sapiens, UniProt P31751)", "T23 construct": "purchased DiscoveRx (Fremont, CA)", "test": "KinomeScan", "type": "binding", "details": "read-out: % Control"}, "[25]": {"molecular_target": "T24, NK3 (Homo sapiens, UniProt P29371)", "T24 construct": "host or cells: Chem-1 cells expressing Gα15", "test": "GPCR Profiler", "type": "cell-based"}, "[26]": {"molecular_target": "T25, EP2 (Homo sapiens, UniProt P43116)", "T25 construct": "host or cells: Chem-1 cells expressing Gα15", "test": "GPCR Profiler", "type": "cell-based"}, "[27]": {"molecular_target": "T26, ABL1(F317I)-phosphorylated (Homo sapiens, UniProt P00519, F317I)", "T26 construct": "purchased DiscoveRx", "T26 sequence (P00519 242-493 F317I limits assumed)": "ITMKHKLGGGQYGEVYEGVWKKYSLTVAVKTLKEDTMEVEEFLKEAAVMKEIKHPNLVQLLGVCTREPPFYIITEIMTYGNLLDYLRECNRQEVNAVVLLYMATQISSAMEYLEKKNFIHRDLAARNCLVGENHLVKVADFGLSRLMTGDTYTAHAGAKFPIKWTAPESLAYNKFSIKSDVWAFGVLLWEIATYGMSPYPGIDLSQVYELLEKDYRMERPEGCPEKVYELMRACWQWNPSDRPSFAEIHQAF", "test": "KinomeScan", "type": "binding", "details": "read-out: % Control"}, "[28]": {"system": "A549", "test": "Acid-induced Mucin-5AC production", "type": "cell-based, human", "details": "pH 6.4 buffered media, 24 hours", "experimental": "Lung (A549) cells were plated in 6-well plates. The cells then were rinsed and protein was isolated. Dot blots were made with anti Mucin-5AC antibodies, and an equivalent amount of protein was run on a western blot to detect alpha tubulin. Lung (A549) cells were cultured as above, but in pH 6.4 buffered media with increasing concentrations of OGM2. Mucin5AC and alpha tubulin were detected in the same way.\nIn addition. A549 cells were cultured in pH 6.4 medium with or without OGM2 for 24 hours cells were then rinsed and then stained with Periodic Acid Staining solution which detects mucins. FIG. 30E is a schematic of cas9 mediated endogenous tagging of MU5AC genetic locus with nano-luciferase in A549 cells. For FIG. 30F, Muc5ac-Luc cells were cultured in pH 6.4 buffered medium with and without OGM2 for 24 hours. Cell lysates were then assayed for luciferase activity and normalized to untreated control. See results in FIG. 30F."}, "[29]": {"system": "endothelial cell (EC)", "test": "Acidification-induced endothelial cell dysfunction", "type": "cell-based", "experimental": "FIG. 34A through FIG. 34C: GPR68 plays a central role in acidification-induced endothelial cell (EC) dysfunction in vitro, and OGM2 abrogates EC dysfunction. […] These effects were abolished by OGM2 (OGM) at 3 uM and augmented by GPR68 positive allosteric modulator Ogerin (Og) at 2 uM. *P<0.05; Mann-Whitney test, n=5. FIG. 34C: Medium acidification reduced transendothelial resistance (TER), indicative of disruption of EC barrier function."}}}
{"smiles": "CCc1ccc2c(c1)C1(NN=C(c3cccc4ccccc34)S1)C(=O)N2", "note": "(stereo not shown) [OGM1, 5-ethyl-5′-naphthalen-1-ylspiro[1H-indole-3,2′-3H-1,3,4-thiadiazole]-2-one]", "values": [{"measurement": "Antagonism", "setting": "[1]; 10 uM", "value": "−2.6"}, {"measurement": "Agonism", "setting": "[1]; 12.5 uM", "value": "−1.1"}, {"measurement": "remaining binding at 10 µM", "setting": "[2]", "value": 100, "unit": "%"}, {"measurement": "remaining binding at 10 µM", "setting": "[3]", "value": 100, "unit": "%"}, {"measurement": "remaining binding at 10 µM", "setting": "[4]", "value": 71, "unit": "%"}, {"measurement": "remaining binding at 10 µM", "setting": "[5]", "value": 100, "unit": "%"}, {"measurement": "remaining binding at 10 µM", "setting": "[6]", "value": 100, "unit": "%"}, {"measurement": "remaining binding at 10 µM", "setting": "[7]", "value": 100, "unit": "%"}, {"measurement": "remaining binding at 10 µM", "setting": "[8]", "value": 95, "unit": "%"}, {"measurement": "remaining binding at 10 µM", "setting": "[9]", "value": 92, "unit": "%"}, {"measurement": "remaining binding at 10 µM", "setting": "[10]", "value": 96, "unit": "%"}, {"measurement": "Antagonism", "setting": "[11]; 10 uM", "value": "−8.2"}, {"measurement": "Agonism", "setting": "[11]; 12.5 uM", "value": "−0.1"}, {"measurement": "remaining binding at 10 µM", "setting": "[12]", "value": 100, "unit": "%"}, {"measurement": "Antagonism", "setting": "[13]; 10 uM", "value": "−0.6"}, {"measurement": "Agonism", "setting": "[13]; 12.5 uM", "value": 2.5}, {"measurement": "remaining binding at 10 µM", "setting": "[14]", "value": 100, "unit": "%"}, {"measurement": "Antagonism", "setting": "[15]; 10 uM", "value": 0.6}, {"measurement": "Agonism", "setting": "[15]; 12.5 uM", "value": 0.4}, {"measurement": "Antagonism", "setting": "[16]; 10 uM", "value": "−0.7"}, {"measurement": "Agonism", "setting": "[16]; 12.5 uM", "value": 1.3}, {"measurement": "Antagonism", "setting": "[17]; 10 uM", "value": "−0.7"}, {"measurement": "Agonism", "setting": "[17]; 12.5 uM", "value": "−0.7"}, {"measurement": "remaining binding at 10 µM", "setting": "[18]", "value": 93, "unit": "%"}, {"measurement": "Antagonism", "setting": "[19]; 10 uM", "value": 14.9}, {"measurement": "Agonism", "setting": "[19]; 12.5 uM", "value": "−0.4"}, {"measurement": "remaining binding at 10 µM", "setting": "[20]", "value": 99, "unit": "%"}, {"measurement": "Antagonism", "setting": "[21]; 10 uM", "value": "−2.5"}, {"measurement": "Agonism", "setting": "[21]; 12.5 uM", "value": 2}, {"measurement": "remaining binding at 10 µM", "setting": "[22]", "value": 86, "unit": "%"}, {"measurement": "remaining binding at 10 µM", "setting": "[23]", "value": 100, "unit": "%"}, {"measurement": "remaining binding at 10 µM", "setting": "[24]", "value": 93, "unit": "%"}, {"measurement": "Antagonism", "setting": "[25]; 10 uM", "value": "−3"}, {"measurement": "Agonism", "setting": "[25]; 12.5 uM", "value": 0.5}, {"measurement": "Antagonism", "setting": "[26]; 10 uM", "value": 7}, {"measurement": "Agonism", "setting": "[26]; 12.5 uM", "value": "−0.2"}, {"measurement": "remaining binding at 10 µM", "setting": "[27]", "value": 82, "unit": "%"}]}
{"smiles": "CCc1ccc2c(c1)C1(NN=C(c3ccccc3)S1)C(=O)N2", "note": "(stereo not shown) [OGM2]", "values": [{"measurement": "Mucin production", "setting": "[28]", "value": "inhibits Mucin production"}, {"measurement": "TER decline caused by low pH (6.5)", "setting": "[29]; GPR4i 5 uM", "value": "abolished TER decline"}, {"measurement": "acidic media (pH 6.5)-induced TNFα, VCAM1 and ICAM1 expression", "setting": "[29]; OGM2 3 uM, Ogerin 2 uM", "value": "abolished"}]}
